Measured values from patent publication US20160362418A1, “CARBOXAMIDE-SUBSTITUTED XANTHENE DYES” (priority 2015, published 2016).

Experiment: Spectral properties of fluorescent dyes (Abs/Em)
Assay type: physicochemical
Conditions: for Abs: absorbance maximum, first number of Abs/Em; for Em: emission maximum, second number of Abs/Em
Description: The spectral properties of dyes can be tuned by modifying the rhodamine core of dyes.

Structure (SMILES) | Abs | Em
CC(=O)O.CN(CCS(=O)(=O)O)C(=O)c1ccccc1-c1c2ccc(=N)cc-2oc2cc(N)ccc12 [Compound 1] | 518 nm | 539 nm
CC(=O)O.CN(CCS(=O)(=O)[O-])C(=O)c1ccccc1C1=c2cc3c(cc2Oc2cc4c(cc21)C(CS(=O)(=O)O)=CC(C)(C)N4C)=[N+](C)C(C)(C)C=C3CS(=O)(=O)O [Compound 6] | 601 nm | 623 nm
